Test results taken from US5869650A, “Dendroamide compounds and their use in chemosensitizing multidrug resistant cells” (Fox Chase Cancer Center, priority 1996, dated 1999).
“Also recorded” adds a separate entry of the source.

Tests used:
[1] = system: MDR cells; settings: cited from earlier work
[2] = system: MCF-7 cells; assay: [3H]vinblastine accumulation in MCF-7 cells; type: cell-based; settings: parental MCF-7 cells
Description: D. Smith et al., Mol. Pharm.
[^3 H]vinblastine was then added and its intracellular accumulation after 60 minutes was determined.

[3] = molecular target: T1, P-glycoprotein (Homo sapiens, UniProt P08183)
T1 sequence (P08183 whole entry): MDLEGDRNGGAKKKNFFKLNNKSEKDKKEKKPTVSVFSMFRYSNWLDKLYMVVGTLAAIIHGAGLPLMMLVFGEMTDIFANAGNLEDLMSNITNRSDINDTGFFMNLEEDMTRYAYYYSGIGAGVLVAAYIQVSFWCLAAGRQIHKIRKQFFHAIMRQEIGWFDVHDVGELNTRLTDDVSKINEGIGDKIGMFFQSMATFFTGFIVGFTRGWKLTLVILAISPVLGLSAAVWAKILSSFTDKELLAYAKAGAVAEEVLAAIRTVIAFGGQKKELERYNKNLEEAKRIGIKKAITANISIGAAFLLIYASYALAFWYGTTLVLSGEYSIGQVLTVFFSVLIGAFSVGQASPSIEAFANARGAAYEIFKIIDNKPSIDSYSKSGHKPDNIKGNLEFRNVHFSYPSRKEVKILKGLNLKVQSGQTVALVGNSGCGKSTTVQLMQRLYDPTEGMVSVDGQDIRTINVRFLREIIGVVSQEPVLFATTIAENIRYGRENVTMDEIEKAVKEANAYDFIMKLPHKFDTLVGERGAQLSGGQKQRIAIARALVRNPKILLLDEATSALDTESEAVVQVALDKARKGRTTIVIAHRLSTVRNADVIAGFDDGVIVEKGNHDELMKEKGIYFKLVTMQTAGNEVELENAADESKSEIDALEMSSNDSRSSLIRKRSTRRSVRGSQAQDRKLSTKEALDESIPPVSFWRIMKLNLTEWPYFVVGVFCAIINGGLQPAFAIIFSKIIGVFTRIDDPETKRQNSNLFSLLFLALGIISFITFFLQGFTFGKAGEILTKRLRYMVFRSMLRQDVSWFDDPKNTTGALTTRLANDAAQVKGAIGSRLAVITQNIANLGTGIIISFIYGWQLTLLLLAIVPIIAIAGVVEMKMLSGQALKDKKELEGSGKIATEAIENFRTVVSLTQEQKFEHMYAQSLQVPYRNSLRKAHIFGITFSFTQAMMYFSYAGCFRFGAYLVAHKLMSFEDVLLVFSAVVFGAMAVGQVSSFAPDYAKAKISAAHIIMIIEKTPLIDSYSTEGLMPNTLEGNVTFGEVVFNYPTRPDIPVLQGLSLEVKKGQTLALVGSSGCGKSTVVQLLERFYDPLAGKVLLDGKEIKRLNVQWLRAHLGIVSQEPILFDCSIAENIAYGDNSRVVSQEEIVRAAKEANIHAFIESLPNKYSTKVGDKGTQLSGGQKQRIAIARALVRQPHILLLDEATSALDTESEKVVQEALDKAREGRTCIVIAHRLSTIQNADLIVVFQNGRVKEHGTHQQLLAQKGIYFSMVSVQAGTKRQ

[4] = system: MCF-7/ADR cells (overexpress P-glycoprotein); assay: [3H]vinblastine accumulation in MCF-7/ADR cells; type: cell-based
Description: The reduction in intracellular accumulation of anticancer drugs due to expression of P-glycoprotein can be at least partially reversed by compounds which interact with the drug transporter.
D. Smith et al., Mol. Pharm. 45:241-247 (1995), using 20 nm [^3 H]vinblastine sulfate (10-15 Ci/mmole) from the Amersham Corporation.
[^3 H]vinblastine was then added and its intracellular accumulation after 60 minutes was determined. Values shown in FIG. 1 represent the mean ± standard deviation accumulation of [^3 H]vinblastine in triplicate samples in one of three similar experiments.

[5] = system: MCF-7/ADR cells; assay: Chemosensitization of MCF-7/ADR cells (sulforhodamine binding assay, cell killing by anticancer drugs); type: cell-based
Description: FIGS. 2A and 2B show the chemosensitization of MCF-7/ADR breast carcinoma cells by Compound A. In FIG. 2A, MCF-7/ADR cells were treated with the indicated concentrations of Compound A in the presence of 15 μM daunomycin (.quadrature.), 200 nM actinomycin D (Δ) or 4 μM cisplatin (.largecircle.). In FIG. 2B, MCF-7 cells (.diamond-solid.) or MCF-7/ADR cells treated with 1% ethanol (.diamond.), 0.6 (.quadrature.) or 2.5 μM of Compound A (Δ) were incubated with the indicated concentrations of vinblastine.
The ability of Compound A to reverse MDR was examined using MCF-7/ADR cells breast carcinoma cells which were obtained as described in Example 5. The effects of Compound A on cell growth were characterized using the sulforhodamine binding assay (P. Skehan et al., J. Natl. Cancer Inst. 82:1107-1112 (1990)) as described in C. D. Smith et al., Oncology Res. 6:211-218 (1994) and C. D. Smith et al., Mol. Pharm. 45:241-247 (1995). Cell survival was assessed after 48 hours of treatment and was expressed as the percentage of cells killed.
The results of the chemosensitization tests showing the effect of the MDR reversing agent Compound A on cell killing by anticancer drugs in the multiple drug resistant MCF-7/ADR cells are shown in FIGS. 2A and 2B. The MCF-7/ADR cells were treated with the indicated concentrations of Compound A in the presence of daunomycin, actinomycin D and or cisplatin. Values shown in FIGS. 2A and 2B represent the mean±standard deviation for triplicate samples in one of two similar experiments.

[6] = molecular target: T1, P-glycoprotein; assay: biochemical
[7] = system: MCF-7/VP cells (express multidrug resistance-related protein (MRP)); assay: Chemosensitization of MCF-7/VP cells (sulforhodamine binding assay, cytotoxicity of anticancer drugs)
[8] = Tsuruo et al., Cancer Res. 41:1967 (1981)

binding of [3H]azidopine to P-glycoprotein (in words) [3] | IC50 [6] [nM] | Compound | intracellular accumulation of anticancer drugs (in words) [1, 8] | sensitization of MDR cells to anticancer drugs (in words) [1, 8] | reversing activity in cultured cells (in words) ([1]; cultured cells) | effect on accumulation of [3H]vinblastine (in words) [2] | ability to increase the accumulation of [3H]vinblastine (in words) ([4]; Compound A compared with verapamil) | activity at 5 µM ([4]; Homo sapiens, NCI/ADR-RES, 1 h, 5 μM, 30 min preincubation, accumulation after 60 min, FIG. 1) [%] | EC (maximal effect) ([4]; Homo sapiens, NCI/ADR-RES, 1 h, FIG. 1, read-out: concentration of maximal effect on [3H]vinblastine accumulation) [µM] | active concentrations for chemosensitization (in words) ([5]; daunomycin or actinomycin D, FIG. 2A) | reversal of P-glycoprotein-mediated MDR (in words) ([5]; vinblastine, FIG. 2B) | effect on cell killing by actinomycin D ([5]; with actinomycin D (200 nM in FIG. 2A), 48 hours) | effect on cytotoxicity of cisplatin ([5]; with cisplatin (4 μM in FIG. 2A), 48 hours) | effect on cell killing by daunomycin ([5]; with daunomycin (15 μM in FIG. 2A), 48 hours) | effect on cell killing by vinblastine ([5]; with vinblastine, 48 hours) | reversal of MRP-mediated resistance to vincristine (in words) ([7]; MCF-7/VP cells, 10 μM, 48 hours) | effect on responses to cisplatin ([7]; MCF-7/VP cells, with cisplatin) | fold resistance of MCF-7/VP cells in comparison with MCF-7 cells ([7]; vincristine, MCF-7/VP vs MCF-7 cells) [fold]
 |  | COc1ccc(CCN(C)CCCC(C#N)(c2ccc(OC)c(OC)c2)C(C)C)cc1OC (stereo not shown) [verapamil] | promote intracellular accumulation of those drugs | sensitize MDR cells to anticancer drugs | potent and effective reversing agent | Neither Compound A nor verapamil increased the accumulation |  |  |  |  |  |  |  |  |  |  |  | 
progressive decreases in binding | 500 | Cc1oc2nc1C(=O)N[C@H](C(C)C)c1nc(cs1)C(=O)N[C@H](C)c1nc(cs1)C(=O)N[C@@H]2C [Compound A, Cyclo-D-Val-Tzl-D-Ala-Tzl-D-Ala-mOzl] |  |  |  | Neither Compound A nor verapamil increased the accumulation | more potent than verapamil; also recorded: strongly enhanced | 750 | 20 | activity at submicromolar concentrations | completely overcomes P-glycoprotein-mediated MDR | killed more effectively; also recorded: markedly potentiating cell killing | did not alter the cytotoxicity of cisplatin | killed more effectively; also recorded: markedly potentiating cell killing | markedly potentiating cell killing | fully reversed; also recorded: fully reverses MRP-mediated resistance | did not modulate responses to cisplatin | 
 |  | CC[C@]1(O)C[C@H]2CN(CCc3c([nH]c4ccccc34)[C@@](C(=O)OC)(c3cc4c(cc3OC)N(C=O)[C@H]3[C@@](O)(C(=O)OC)[C@H](OC(C)=O)[C@]5(CC)C=CCN6CC[C@]43[C@@H]65)C2)C1 [vincristine, reference compound] |  |  |  |  |  |  |  |  |  |  |  |  |  |  |  | 15
